One compound from publication PMC9611734, “Alkaloid Derivative (Z)-3β-Ethylamino-Pregn-17(20)-en Inhibits Triple-Negative Breast Cancer Metastasis and Angiogenesis by Targeting HSP90α” (Molecules, 2022) can be followed below.

For this assay, the target named is T1, HSP90α (Homo sapiens, UniProt P07900).
T1 construct: gene HSP90AA1; Recombinant human HSP90 alpha protein (ab80369)
In words: SPR (Biacore T200, […] binding model); supported by CETSA for HSP90 in MDA-MB-231 cells.

pKd: −log10 of the molar value.

As usually defined, the pKd is −log10 of the Kd, conventionally taken in molar units. High values mean a small Kd, low ones a large Kd. `C/C=C1/CC[C@H]2[C@@H]3CCC4C[C@@H](NCC)CC[C@]4(C)[C@H]3CC[C@]12C` (stereo partly drawn) [compound 1, (Z)-3β-ethylamino-pregn-17(20)-en]: the pKd is 4.68.
